The record followed here is patent US11844782B2, “Aqueous composition comprising dantrolene” (SPEPHARM AG, priority 2015, dated 2023).

A short description of the data set: Solubility of dantrolene sodium salt with cyclodextrins at pH 6.0 to 10.0 (FIGS. 1-5, 11, 12). In kind it is physicochemical. Conditions: pH 9; 2-hydroxypropyl-β-cyclodextrin 50 mg/ml, dantrolene sodium salt 1 mg/ml. As for the experimental part:
In these experiments four different cyclodextrins were tested in combination with dantrolene sodium salt. The concentration of the cyclodextrin compound was 50 mg/ml and the concentration of dantrolene sodium salt was 1 mg/ml. The pH values were adjusted by using a buffer composed of phosphate 25 mM and Tromethamine 25 mM in water to reach pH 6.0, 7.0, 8.0, 9.0 and 10.0, respectively. The obtained solutions were stored at room temperature and examined over the course of 10 days. The solubility of dantrolene sodium salt was determined after 24 and 48 hours. The solutions were analyzed by visual observation, whilst the content of the dantrolene sodium salt and the degradation profile were determined by HPLC and pH value monitoring.
Dantrolene content and degradation profiles were determined on an Agilent Series 1100 HPLC equipment (Agilent Technologies Inc, Santa Clara, CA, USA) fitted with a quaternary pump, an autosampler, a diode-array detector and a thermostated column compartment. Samples were analyzed on a Kinetex XB-C18 column (75×4.6 mm, 2.6 μm, Phenomenex) with mobile phases consisting of water with 0.1% formic acid (A) and acetonitrile with 0.1% formic acid (B) using a linear gradient from 15% to 45% (B) in 12 minutes. […]

Structures can show the parent of a compound that is named as a salt.

With `O=C1CN(/N=C/c2ccc(-c3ccc([N+](=O)[O-])cc3)o2)C(O)=N1` [dantrolene salt, dantrolene sodium salt], the “solubility of the dantrolene salt” value was “almost complete solubility”.
